Data on 1 compound can be found in paper PMC8813987, “Schwann cell endosome CGRP signals elicit periorbital mechanical allodynia in mice” (Nature Communications, 2022).

Usually IC50 stands for the concentration that gives 50% inhibition.

Molecules are shown by their SMILES.

This experiment addresses T1, CLR/RAMP1 (calcitonin receptor-like receptor) (Homo sapiens, UniProt O60894+Q16602).
T1 construct: gene CALCRL; with RAMP1
Description: inhibition of CGRP-evoked Ca2+ response in primary human Schwann cells (preincubation, then washout). Type of experiment: cell-based.

T1 sequence (Q16602 23-461): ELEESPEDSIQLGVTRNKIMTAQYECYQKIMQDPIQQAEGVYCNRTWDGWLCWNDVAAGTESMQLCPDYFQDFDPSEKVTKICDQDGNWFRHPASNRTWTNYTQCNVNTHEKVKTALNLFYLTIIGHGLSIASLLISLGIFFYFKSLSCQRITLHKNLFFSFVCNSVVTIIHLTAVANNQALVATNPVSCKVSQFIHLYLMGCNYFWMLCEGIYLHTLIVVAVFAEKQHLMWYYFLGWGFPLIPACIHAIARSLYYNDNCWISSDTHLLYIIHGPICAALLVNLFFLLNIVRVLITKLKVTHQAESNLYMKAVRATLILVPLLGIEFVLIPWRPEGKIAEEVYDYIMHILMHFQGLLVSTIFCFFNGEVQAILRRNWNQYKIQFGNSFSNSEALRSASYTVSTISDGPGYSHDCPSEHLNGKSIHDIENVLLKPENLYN
T1 sequence (O60894 27-148): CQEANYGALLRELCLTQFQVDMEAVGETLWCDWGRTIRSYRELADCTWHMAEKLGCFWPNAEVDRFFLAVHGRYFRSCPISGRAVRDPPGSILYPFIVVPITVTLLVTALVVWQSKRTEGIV

With `O=C(CN1C(=O)C2(CCCC2)NC[C@H]1c1cc(F)cc(F)c1)Nc1ccc2c(c1)C[C@@]1(C2)C(=O)Nc2ncccc21` [MK-3207], the IC50 worked out at 2900 nM.
